Results as given in the Deep4Chem optical property database.

Test: solvent given as SMILES

## N#Cc1nc2c(OCc3ccccc3)nc(N)nc2n1Cc1ccccc1
In C1COCCO1
  absorption maximum: 313 nm
In CC#N
  absorption maximum: 313 nm
In CO
  absorption maximum: 318 nm
In ClCCl
  absorption maximum: 311 nm

## CCc1c(C)c2n(c1C)[B-](F)(F)[N+]1=C(NCc3ccc(OC)cc3)C(SC#N)=CC1=C2C
In CC#N
  absorption maximum: 562 nm
In CCCCCC
  absorption maximum: 572 nm
In CCOC(C)=O
  absorption maximum: 565 nm
In CO
  absorption maximum: 562 nm
In ClCCl
  absorption maximum: 568 nm

## CCCCCCN1C(=O)c2cccc3cc(/N=C\c4nc5ccccc5s4)cc(c23)C1=O
In ClC(Cl)Cl
  absorption maximum: 370 nm

## Fc1cc(-c2ccc(-c3nc4ccccc4[nH]3)cc2)ccc1-c1ccc(-c2nc3ccccc3[nH]2)cc1
In CN(C)C=O
  absorption maximum: 343 nm

## CC1(C)Cc2c(c3ccccc3c3nc4ccccc4nc23)O1
In C1CCCCC1
  absorption maximum: 456 nm
In C1CCOC1
  absorption maximum: 459.98 nm
In CN(C)C=O
  absorption maximum: 457.04 nm
In CO
  absorption maximum: 458.09 nm
In ClC(Cl)Cl
  absorption maximum: 459.98 nm
In c1ccccc1
  absorption maximum: 458.09 nm

## CCCCCCOc1cc(C=C2C(=O)c3ccccc3C2=O)c(OCCCCCC)cc1C=C1C(=O)c2ccccc2C1=O
In ClCCl
  absorption maximum: 512 nm

## CCC1=C(C)C2=C(c3c4ccccc4c(C)c4ccccc34)c3c(C)c(CC)c(C)n3[B-](F)(F)[N+]2=C1C
In CC#N
  absorption maximum: 527 nm
In CCCCCC
  absorption maximum: 529 nm
In CCO
  absorption maximum: 528 nm
In CN(C)C=O
  absorption maximum: 530 nm
In Cc1ccccc1
  absorption maximum: 532 nm
In ClCCl
  absorption maximum: 531 nm

## CN(C)c1ccc(-c2ccc(-c3nc(C#N)c(C#N)n3C)cc2)cc1
In C1CCCCC1
  absorption maximum: 333 nm
In CC#N
  absorption maximum: 336 nm
In CO
  absorption maximum: 336 nm
In ClC(Cl)Cl
  absorption maximum: 348 nm

## CCCCOc1c(C=C2C=Cc3ccccc3N2C)c(=O)c1=O
In CCO
  absorption maximum: 465 nm

## Nc1cccc2cccc(N)c12
In CC#N
  absorption maximum: 349 nm
In CO
  absorption maximum: 334 nm
In CS(C)=O
  absorption maximum: 354 nm
In Cc1ccccc1
  absorption maximum: 334 nm

## [C-]#[N+]c1ccc(-c2ccc(N(C)C)cc2)cc1
In C1CCCCC1
  absorption maximum: 325 nm
In C1CCOC1
  absorption maximum: 334 nm
In C1COCCO1
  absorption maximum: 330 nm
In CC#N
  absorption maximum: 333 nm
In CC(C)=O
  absorption maximum: 327 nm
In CCCCCC
  absorption maximum: 323 nm
In CCOC(C)=O
  absorption maximum: 330 nm
In CN(C)C=O
  absorption maximum: 339 nm
In CO
  absorption maximum: 333 nm
In CS(C)=O
  absorption maximum: 340 nm
In Cc1ccccc1
  absorption maximum: 329 nm
In ClC(Cl)Cl
  absorption maximum: 331 nm
In ClCCl
  absorption maximum: 336 nm
In O
  absorption maximum: 315 nm
In c1ccncc1
  absorption maximum: 340 nm

## CCCN1/C(=C/C=C(/C=C/C2=[N+](CCC)c3ccccc3C2(C)C)c2ccc3ccccc3n2)C(C)(C)c2ccccc21
In CO
  absorption maximum: 629 nm
In CS(C)=O
  absorption maximum: 641 nm
In O
  absorption maximum: 633 nm

## Cn1c2cc(N3CCCCC3)c(F)cc2c(=O)c2cc(F)c(N3CCCCC3)cc21
In CCO
  absorption maximum: 368 nm

## COc1ccc(N(c2ccc(/C=C(\C)c3ccccc3)cc2)c2ccc(/C=C(\C)c3ccccc3)cc2)cc1
In Cc1ccccc1
  absorption maximum: 364 nm

## CCCCCCCCc1ccc(-n2c3c(c4c2c2c(n4-c4ccc(CCCCCCCC)cc4)-c4ccccc4NB2c2ccccc2)B(c2ccccc2)Nc2ccccc2-3)cc1
In Cc1ccccc1
  absorption maximum: 387 nm

## CCOC(=O)CCCCCn1c2ccccc2c(=O)c2cc(I)ccc21
In CO
  absorption maximum: 414 nm

## CC(C)(C)c1ccc2c(c1)c1cc(C(C)(C)C)ccc1n2-c1ccc(C#Cc2ccccc2)cc1
In CC#N
  absorption maximum: 329 nm
In CCCCC
  absorption maximum: 329 nm
In CO
  absorption maximum: 329 nm
In Cc1ccccc1
  absorption maximum: 335 nm
In ClC(Cl)Cl
  absorption maximum: 329 nm
In ClCCl
  absorption maximum: 334 nm

## CC1(C)c2ccccc2N(c2ccc(-c3ccc(C#N)cn3)cc2)c2ccccc21
In Cc1ccccc1
  absorption maximum: 384 nm

## Cc1ccc(C(=O)c2c(C)c3ccc4cccc5c6cccc7ccc2c(c76)c3c45)cc1
In ClCCl
  absorption maximum: 391 nm

## O=C(O)c1cccc2c(=O)c3ccccc3[nH]c12
In O
  absorption maximum: 413 nm

## CC(=O)Nc1ccc2ccc3cccc4ccc1c2c34
In CC#N
  absorption maximum: 339 nm
In CCCCOCCCC
  absorption maximum: 341 nm
In CO
  absorption maximum: 338 nm

## c1ccc(-n2c3ccccc3c3cc([Si](c4ccccc4)(c4ccccc4)c4ccc5c(c4)c4ccccc4n5-c4ccccc4)ccc32)cc1
In ClCCl
  absorption maximum: 342 nm

## CC[N+]1(CC)CN2C(=N1)C(C(=O)O)=Cc1c2ccc2ccccc12
In O
  absorption maximum: 406 nm

## CN(C)c1ccc(/C=C2/N=C(c3ccccc3)OC2=O)cc1
In C1CCCCC1
  absorption maximum: 456 nm
In C1COCCO1
  absorption maximum: 466 nm
In CC#N
  absorption maximum: 473 nm
In CC(C)=O
  absorption maximum: 470 nm
In CC(C)O
  absorption maximum: 470 nm
In CCCCCC
  absorption maximum: 443 nm
In CCCCCO
  absorption maximum: 470 nm
In CCCCO
  absorption maximum: 472 nm
In CCO
  absorption maximum: 470 nm
In CN(C)C=O
  absorption maximum: 482 nm
In CO
  absorption maximum: 473 nm
In ClC(Cl)(Cl)Cl
  absorption maximum: 466 nm
In ClC(Cl)Cl
  absorption maximum: 472 nm
In ClCCl
  absorption maximum: 472 nm

## CC(C)(C)Nc1c(-c2ccc(-c3cc(=O)cc(-c4ccccc4)o3)cc2)nc2ccccn12
In ClCCl
  absorption maximum: 355 nm

## CN(C)c1ccc2[c](c1)[Sn]([CH3])([CH3])[C]1=CC(=[N+](C)C)C=CC1=C2
In O
  absorption maximum: 614 nm

## C(#Cc1cc(C#Cc2ccccc2)c(C#Cc2ccccc2)c(C#Cc2ccccc2)c1C#Cc1ccccc1)c1ccccc1
In ClCCl
  absorption maximum: 364 nm

## COc1ccc(-c2cc(-c3ccc(OC)cc3)c3c(N)nc(N4CCCC4)c(C#N)c3n2)cc1
In CC#N
  absorption maximum: 416 nm
In CC(C)=O
  absorption maximum: 416 nm
In CC(C)O
  absorption maximum: 412 nm
In CO
  absorption maximum: 412 nm
In ClC(Cl)Cl
  absorption maximum: 420 nm
In ClCCl
  absorption maximum: 418 nm
In c1ccccc1
  absorption maximum: 420 nm

## F[B-]1(F)n2c(cc3c4ccccc4c4ccccc4c32)-c2ccc3ccccc3[n+]21
In ClCCl
  absorption maximum: 476 nm

## CC1=CC(C)=[N+]2C1=C(c1c3ccccc3cc3ccccc13)c1c(C)cc(C)n1[B-]2(F)F
In CC#N
  absorption maximum: 502 nm
In CCCCCC
  absorption maximum: 504 nm
In CCO
  absorption maximum: 505 nm
In CN(C)C=O
  absorption maximum: 505 nm
In Cc1ccccc1
  absorption maximum: 508 nm
In ClCCl
  absorption maximum: 506 nm

## CC(C)[Si](C#Cc1c2ccc(C(C)(C)C)cc2c(C#Cc2c3ccc(C(C)(C)C)cc3c(C#C[Si](C(C)C)(C(C)C)C(C)C)c3ccc(C(C)(C)C)cc23)c2ccc(C(C)(C)C)cc12)(C(C)C)C(C)C
In Cc1ccccc1
  absorption maximum: 523 nm

## CNc1cccc2c1C(=O)c1ccccc1-2
In C1CCCCC1
  absorption maximum: 432 nm
In CC#N
  absorption maximum: 445 nm
In CCO
  absorption maximum: 448 nm
In c1ccccc1
  absorption maximum: 445 nm

## CC(C)(C)[Si](C)(C)c1cccc2ccccc12
In C1CCCCC1
  absorption maximum: 295 nm

## F[B-]12OC(c3ccccc3)=Nc3cccc([n+]31)N=C(c1ccccc1)O2
In ClCCl
  absorption maximum: 394 nm

## Cc1ccc(-n2c3ccccc3c3cc(-c4ccc5[n+](c4)[B-](F)(F)n4c-5nc5c6ccccc6c6ccccc6c54)ccc32)cc1
In ClC(Cl)Cl
  absorption maximum: 444 nm

## O=C1/C(=C\c2ccc(N(c3ccccc3)c3ccccc3)cc2)S(=O)(=O)c2ccccc21
In C1CCOC1
  absorption maximum: 473 nm
In C1COCCO1
  absorption maximum: 475 nm
In CC#N
  absorption maximum: 475 nm
In CC(C)=O
  absorption maximum: 472 nm
In CCOC(C)=O
  absorption maximum: 471 nm
In CN(C)C=O
  absorption maximum: 478 nm
In CO
  absorption maximum: 477 nm
In CS(C)=O
  absorption maximum: 482 nm
In Cc1ccccc1
  absorption maximum: 485 nm
In ClC(Cl)Cl
  absorption maximum: 491 nm
In ClCCl
  absorption maximum: 485 nm

## CCCCN(CCCC)c1ccc(C#Cc2cc(C#Cc3ccc(C#N)cc3)c(C#Cc3ccc(N(CCCC)CCCC)cc3)cc2C#Cc2ccc(C#N)cc2)cc1
In ClCCl
  absorption maximum: 454 nm

## COc1ccc(-c2cc3c(ccc4sc5ccc6sc(-c7ccc(C(C)=O)cc7)cc6c5c43)s2)cc1
In ClCCl
  absorption maximum: 380 nm

## Cc1cc(C)c(B(c2cc(-c3ccc(C(F)(F)F)cc3)sc2-c2sc(-c3ccc(C(F)(F)F)cc3)cc2P(=O)(c2ccccc2)c2ccccc2)c2c(C)cc(C)cc2C)c(C)c1
In CO
  absorption maximum: 389 nm

## CN(C)c1ccc2nc(/C=C/c3cc4c5c(c3)CCCN5CCC4)c(=O)oc2c1
In C1CCCCC1
  absorption maximum: 487 nm
In C1COCCO1
  absorption maximum: 495.5 nm
In CC#N
  absorption maximum: 507.5 nm
In CC(C)=O
  absorption maximum: 507 nm
In CCCCCCC
  absorption maximum: 483 nm
In CCO
  absorption maximum: 513 nm
In CCOC(C)=O
  absorption maximum: 501 nm
In CN(C)C=O
  absorption maximum: 516 nm
In CS(C)=O
  absorption maximum: 522.5 nm
In Cc1ccccc1
  absorption maximum: 505.5 nm
In ClC(Cl)Cl
  absorption maximum: 517 nm
In ClCCl
  absorption maximum: 514.5 nm

## O=c1[nH]c(=O)n([C@@H]2O[C@H](CO)[C@@H](O)[C@H]2O)cc1-c1cc2ccccc2s1
In C1COCCO1
  absorption maximum: 322 nm
In CC#N
  absorption maximum: 321 nm
In CO
  absorption maximum: 321 nm
In O
  absorption maximum: 318 nm

## COc1ccc2c(c1)-c1ccccc1C2=O
In C1CCCCC1
  absorption maximum: 365 nm
In CC#N
  absorption maximum: 379 nm
In CCO
  absorption maximum: 387 nm

## CN(C)c1ccc(C2=[N+]3C(=Nc4c(-c5ccccc5)cc(-c5ccc(N(C)C)cc5)n4[B-]3(F)F)C(c3ccccc3)=C2)cc1
In ClC(Cl)Cl
  absorption maximum: 799 nm

## N#C/C(=C/Nc1ccc(C#N)cc1)c1nc(-c2ccccc2)cs1
In CC#N
  absorption maximum: 372 nm
In CCO
  absorption maximum: 373 nm
In CN(C)C=O
  absorption maximum: 376 nm
In Cc1ccccc1
  absorption maximum: 377 nm
In ClCCl
  absorption maximum: 375 nm

## c1ccc(-c2cc3c(oc4ccccc43)c(-c3ccccc3)[o+]2)cc1
In CC#N
  absorption maximum: 385 nm
In ClCCCl
  absorption maximum: 395 nm

## CC(C)(C)c1ccc2c(c1)c1cc(C(C)(C)C)ccc1n2-c1ccc(-c2nc(-c3ccc(-n4c5ccc(C(C)(C)C)cc5c5cc(C(C)(C)C)ccc54)cc3)nc(-c3ccc(P(=O)(c4ccccc4)c4ccccc4)cc3)n2)cc1
In C1CCOC1
  absorption maximum: 386.93 nm
In CC#N
  absorption maximum: 380.02 nm
In CC(C)=O
  absorption maximum: 380.02 nm
In CN(C)C=O
  absorption maximum: 384.45 nm
In Cc1ccccc1
  absorption maximum: 393.2 nm
In ClC(Cl)Cl
  absorption maximum: 430.07 nm
In ClCCl
  absorption maximum: 382.72 nm
